Measured values reported in patent US10654808B2, “Tyrosine kinase inhibitor and pharmaceutical composition comprising same” (GUANGDONG RAYNOVENT BIOTECH CO., LTD., priority 2015, dated 2020).

Assays:
Format in all cases: biochemical
VEGFR2 = molecular target: T1, VEGFR2 (Homo sapiens, UniProt P35968); assay: Z'-LYTE in vitro enzyme activity assay, VEGFR2; conditions: 100 μM ATP, 60 minutes, room temperature; read-out: IC50 detected by Z'-LYTE, VEGFR2
T1 construct: purchased Life technology
Protocol: (§1) The enzyme activity was measured by Z′-LYTE™ Detection Kinase Assay. The IC50 value of the compounds was used as an index to evaluate the inhibitory effect of the compounds on VEGFR2, FGFR1 and PDGFRB.
(§2) Recombinant human VEGFR2 and FGFR1 proteases were purchased from Life technology, PDGFRB Protease was purchased from Millipore.
(§3) Z-LYTE™ Kit Tyr1 and Tyr4 were purchased from Life technology. Multi-microplate reader, Envision (PerkinElmer) read board was used.
(§4) The test compounds were diluted 3 times with a concentration gradient, the final concentration was from 10 μM to 0.17 nM with a total of 11 concentrations, and each concentration had two parallel holes; the content of DMSO in the assay was 1%.
3 nM VEGFR2 protein kinase, 2 μM Tyr1 peptide, 100 μM ATP, 50 mM HEPES (pH 7.5), 10 mM MgCl2, 1 mM EGTA, 0.01% BRIJ-35. The detector plate was Black Proxiplate 384-Plus plate (PerkinElmer), the reaction was performed at room temperature for 60 minutes, and the reaction system was 10 μl.
(§5) The reaction was stopped by adding 5 μl of DV reagent B (1:128) to the kinase reaction solution and incubated at 23° C. for 60 minutes. The Envision instrument was used to read the plate.
(§6) The data was converted to phosphorylation rate and inhibition rate and the 4 parameter curve fitting (Model 205 in XLFIT5, iDBS) was used to get IC50 data of the compounds.

PDGFRB = molecular target: T2, PDGFRB (Homo sapiens, UniProt P09619); assay: Z'-LYTE in vitro enzyme activity assay, PDGFRB; conditions: 100 μM ATP, 60 minutes, room temperature; read-out: IC50 detected by Z'-LYTE, PDGFRB
T2 construct: purchased Millipore
T2 sequence (P09619 33-1106): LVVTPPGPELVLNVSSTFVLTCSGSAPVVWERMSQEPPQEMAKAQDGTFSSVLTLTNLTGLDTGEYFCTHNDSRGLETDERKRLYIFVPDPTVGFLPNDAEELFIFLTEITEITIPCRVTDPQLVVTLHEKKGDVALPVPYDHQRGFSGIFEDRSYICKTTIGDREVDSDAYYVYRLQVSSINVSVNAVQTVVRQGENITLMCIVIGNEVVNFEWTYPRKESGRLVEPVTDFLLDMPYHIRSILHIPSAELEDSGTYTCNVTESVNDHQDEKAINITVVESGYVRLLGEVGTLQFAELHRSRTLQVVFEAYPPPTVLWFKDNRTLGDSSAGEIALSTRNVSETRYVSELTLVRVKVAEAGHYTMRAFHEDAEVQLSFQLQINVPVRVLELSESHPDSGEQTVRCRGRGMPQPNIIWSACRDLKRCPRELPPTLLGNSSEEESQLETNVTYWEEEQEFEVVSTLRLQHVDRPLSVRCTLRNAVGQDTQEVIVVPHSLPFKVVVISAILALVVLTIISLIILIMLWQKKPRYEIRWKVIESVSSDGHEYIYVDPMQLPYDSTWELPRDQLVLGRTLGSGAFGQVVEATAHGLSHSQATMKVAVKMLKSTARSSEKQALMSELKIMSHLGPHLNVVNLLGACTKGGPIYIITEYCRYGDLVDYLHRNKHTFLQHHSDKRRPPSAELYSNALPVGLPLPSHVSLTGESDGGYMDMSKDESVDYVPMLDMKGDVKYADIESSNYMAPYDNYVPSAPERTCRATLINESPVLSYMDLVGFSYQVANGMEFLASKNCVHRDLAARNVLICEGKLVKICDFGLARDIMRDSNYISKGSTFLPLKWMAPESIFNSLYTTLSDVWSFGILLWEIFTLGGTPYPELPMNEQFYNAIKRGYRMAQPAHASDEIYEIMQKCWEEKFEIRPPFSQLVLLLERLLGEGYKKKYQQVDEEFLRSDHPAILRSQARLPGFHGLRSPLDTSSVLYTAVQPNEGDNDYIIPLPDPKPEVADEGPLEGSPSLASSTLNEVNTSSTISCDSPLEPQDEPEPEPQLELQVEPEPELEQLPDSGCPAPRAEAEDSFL
Protocol: as §1, §2, §3, §4
40 nM PDGFRB protein kinase, 2 μM Tyr4 peptide, 100 μM ATP, 50 mM HEPES (pH 7.5), 10 mM MgCl2, 1 mM EGTA, 0.01% BRIJ-35, 2 mM MnCl2, 1 mM DTT. The detector plate was Black Proxiplate 384-Plus plate (PerkinElmer), the reaction was performed at room temperature for 60 minutes, and the reaction system was 10 μl.
as §5, §6

FGFR1 = molecular target: T3, FGFR1 (Homo sapiens, UniProt P11362); assay: Z'-LYTE in vitro enzyme activity assay, FGFR1; conditions: 25 μM ATP, 60 minutes, room temperature; read-out: IC50 detected by Z'-LYTE, FGFR1
T3 construct: purchased Life technology
T3 sequence (P11362 22-822): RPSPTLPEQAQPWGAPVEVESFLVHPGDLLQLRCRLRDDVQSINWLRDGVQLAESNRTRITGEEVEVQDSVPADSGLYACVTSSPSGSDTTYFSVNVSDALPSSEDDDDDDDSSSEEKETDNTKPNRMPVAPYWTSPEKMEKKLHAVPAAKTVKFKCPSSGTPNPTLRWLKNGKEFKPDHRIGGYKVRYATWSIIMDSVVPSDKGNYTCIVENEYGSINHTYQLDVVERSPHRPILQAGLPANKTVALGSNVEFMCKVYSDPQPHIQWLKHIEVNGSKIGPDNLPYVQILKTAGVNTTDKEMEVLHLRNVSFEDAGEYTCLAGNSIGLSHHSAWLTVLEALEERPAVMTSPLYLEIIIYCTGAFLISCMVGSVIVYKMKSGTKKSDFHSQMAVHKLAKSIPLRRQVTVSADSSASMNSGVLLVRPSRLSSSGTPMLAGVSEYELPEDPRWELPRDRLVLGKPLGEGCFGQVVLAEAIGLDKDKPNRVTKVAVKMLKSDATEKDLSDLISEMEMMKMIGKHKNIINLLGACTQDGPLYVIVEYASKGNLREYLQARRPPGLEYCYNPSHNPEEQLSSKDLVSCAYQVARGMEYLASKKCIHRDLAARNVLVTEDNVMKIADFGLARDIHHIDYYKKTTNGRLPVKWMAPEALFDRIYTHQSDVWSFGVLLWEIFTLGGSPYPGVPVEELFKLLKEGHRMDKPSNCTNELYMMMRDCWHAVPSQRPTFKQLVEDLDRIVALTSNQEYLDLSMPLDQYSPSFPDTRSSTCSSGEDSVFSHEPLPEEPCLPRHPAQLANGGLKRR
Protocol: as §1, §2, §3, §4
1 nM FGFR1 protein kinase, 2 μM Tyr4 peptide, 25 μM ATP, 50 mM HEPES (pH 7.5), 10 mM MgCl2, 1 mM EGTA, 0.01% BRIJ-35, 2 mM MnCl2, 1 mM DTT. The detector plate was Black Proxiplate 384-Plus plate (PerkinElmer), the reaction was performed at room temperature for 60 minutes, and the reaction system was 10 μl.
as §5, §6

T1 sequence (P35968 20-1356): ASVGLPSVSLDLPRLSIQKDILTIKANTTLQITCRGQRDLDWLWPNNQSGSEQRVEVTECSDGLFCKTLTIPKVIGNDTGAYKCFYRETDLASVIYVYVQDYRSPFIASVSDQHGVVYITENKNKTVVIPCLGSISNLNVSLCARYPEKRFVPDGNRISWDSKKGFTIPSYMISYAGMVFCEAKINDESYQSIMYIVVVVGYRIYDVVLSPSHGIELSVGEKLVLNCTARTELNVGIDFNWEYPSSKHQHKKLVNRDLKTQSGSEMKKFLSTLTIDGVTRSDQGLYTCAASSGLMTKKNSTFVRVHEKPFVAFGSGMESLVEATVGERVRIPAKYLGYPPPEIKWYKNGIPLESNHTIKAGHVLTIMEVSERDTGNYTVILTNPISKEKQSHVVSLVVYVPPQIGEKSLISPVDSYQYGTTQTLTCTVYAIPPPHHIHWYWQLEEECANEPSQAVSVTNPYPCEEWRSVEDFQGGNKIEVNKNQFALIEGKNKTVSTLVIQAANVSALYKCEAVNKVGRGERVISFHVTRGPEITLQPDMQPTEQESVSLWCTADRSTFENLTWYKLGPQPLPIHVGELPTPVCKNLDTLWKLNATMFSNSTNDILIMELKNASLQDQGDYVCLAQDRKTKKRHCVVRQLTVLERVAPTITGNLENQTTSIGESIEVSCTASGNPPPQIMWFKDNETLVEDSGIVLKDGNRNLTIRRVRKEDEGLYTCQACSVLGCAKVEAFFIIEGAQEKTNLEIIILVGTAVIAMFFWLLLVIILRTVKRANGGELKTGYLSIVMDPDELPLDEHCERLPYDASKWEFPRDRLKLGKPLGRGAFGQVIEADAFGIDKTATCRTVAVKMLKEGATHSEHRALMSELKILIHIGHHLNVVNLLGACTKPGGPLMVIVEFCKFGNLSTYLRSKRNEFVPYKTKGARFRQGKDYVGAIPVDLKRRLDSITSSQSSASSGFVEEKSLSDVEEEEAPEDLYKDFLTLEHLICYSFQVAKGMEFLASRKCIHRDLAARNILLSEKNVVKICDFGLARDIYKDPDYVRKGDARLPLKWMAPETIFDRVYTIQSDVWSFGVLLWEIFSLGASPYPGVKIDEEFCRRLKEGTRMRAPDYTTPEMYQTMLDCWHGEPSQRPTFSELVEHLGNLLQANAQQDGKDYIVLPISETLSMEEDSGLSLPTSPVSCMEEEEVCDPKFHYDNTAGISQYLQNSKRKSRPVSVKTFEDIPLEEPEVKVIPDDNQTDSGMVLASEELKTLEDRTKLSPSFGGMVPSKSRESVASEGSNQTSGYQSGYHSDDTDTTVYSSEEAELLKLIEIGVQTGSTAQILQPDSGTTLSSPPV

| SMILES | IC50 (VEGFR2) [nM] | IC50 (PDGFRB) [nM] | IC50 (FGFR1) [nM] |
| --- | --- | --- | --- |
| COc1cc2nccc(Oc3ccc(NC(=S)Nc4ccc(Cl)c(F)c4)c(Cl)c3)c2cc1C(N)=O [Example 3] | 200 to 1000 | 200 to 1000 | 200 to 1000 |
| COc1cc2nccc(Oc3ccc(NC(=S)Nc4cc[nH]n4)c(Cl)c3)c2cc1C(N)=O [Example 4] | 50 to 200 | 200 to 1000 | 200 to 1000 |
| COc1cc2nccc(Oc3ccc(NC(=S)NCc4ccncc4)c(Cl)c3)c2cc1C(N)=O [Example 5] | 50 to 200 | 50 to 200 | 200 to 1000 |
| COc1cc2nccc(Oc3ccc(NC(=S)Nc4cccc(C(F)(F)F)c4)c(Cl)c3)c2cc1C(N)=O [Example 7] | 50 to 200 | 200 to 1000 | 200 to 1000 |
| COc1cc2nccc(Oc3ccc(NC(=S)NCc4ccc(Cl)cc4)c(Cl)c3)c2cc1C(N)=O [Example 9] | 200 to 1000 | < 50 | 200 to 1000 |
| COc1cc2nccc(Oc3ccc(NC(=S)Nc4cccnc4)c(Cl)c3)c2cc1C(N)=O [Example 10] | 50 to 200 | 50 to 200 | 200 to 1000 |
| COc1cc2nccc(Oc3ccc(NC(=S)NCc4ccccn4)c(Cl)c3)c2cc1C(N)=O [Example 11] | 200 to 1000 | 50 to 200 | 200 to 1000 |
| COc1cc2nccc(Oc3ccc(NC(=S)NCCc4ccccc4)c(Cl)c3)c2cc1C(N)=O [Example 14] | 200 to 1000 | 50 to 200 | 200 to 1000 |
| COc1cc2nccc(Oc3ccc(NC(=S)NC4CCOCC4)c(Cl)c3)c2cc1C(N)=O [Example 15] | 200 to 1000 | 50 to 200 | 200 to 1000 |
| COc1cc2nccc(Oc3ccc(NC(=S)NCc4ccc(F)cc4)c(Cl)c3)c2cc1C(N)=O [Example 17] | 200 to 1000 | 50 to 200 | 200 to 1000 |
| COc1cc2nccc(Oc3ccc(NC(=S)NCCC#N)c(Cl)c3)c2cc1C(N)=O [Example 18] | 200 to 1000 | 200 to 1000 | 200 to 1000 |
| COc1cc2nccc(Oc3ccc(NC(=S)NCCN4CCOCC4)c(Cl)c3)c2cc1C(N)=O [Example 19] | 200 to 1000 | < 50 | 200 to 1000 |
| COc1cc2nccc(Oc3ccc(NC(=S)NCc4cccnc4)c(Cl)c3)c2cc1C(N)=O [Example 20] | 50 to 200 | < 50 | 200 to 1000 |
| COc1cc2nccc(Oc3ccc(NC(=S)N[C@@H](C)CO)c(Cl)c3)c2cc1C(N)=O [Example 22] | 50 to 200 | 50 to 200 | 200 to 1000 |
| COc1cc2nccc(Oc3ccc(NC(=S)NCCN(C)C)c(Cl)c3)c2cc1C(N)=O [Example 23] | 200 to 1000 | 50 to 200 | 200 to 1000 |
| COc1cc2nccc(Oc3ccc4c(c3)CCN4C(=S)NC3CC3)c2cc1C(N)=O [Example 24] | 200 to 1000 | 200 to 1000 | 200 to 1000 |
| Cc1c(OCC(C)O)cn2ncnc(Oc3ccc(NC(=S)NC4CC4)c(Cl)c3)c12 (centres unmarked) [Example 25] | 200 to 1000 | 200 to 1000 | 200 to 1000 |
| COc1cc2nccc(Oc3ccc4c(c3)CCCN4C(=S)NC3CC3)c2cc1C(N)=O [Example 26] | 50 to 200 | 200 to 1000 | 200 to 1000 |
| COc1cc2nccc(Oc3ccc(NC(=S)NC4CC(O)C4)c(Cl)c3)c2cc1C(N)=O (centres unmarked) [Example 27] | 50 to 200 | 50 to 200 | 200 to 1000 |
| COc1cc2nccc(Oc3ccc(NC(=S)NCCCO)c(Cl)c3)c2cc1C(N)=O [Example 29] | 50 to 200 | 50 to 200 | 200 to 1000 |
| COc1cc2nccc(Oc3ccc(NC(=S)NCC(C)(C)O)c(Cl)c3)c2cc1C(N)=O [Example 30] | 200 to 1000 | 200 to 1000 | 200 to 1000 |
| CCOP(=O)(Cc1ccc(Oc2ccnc3cc(OC)c(C(N)=O)cc23)cc1Cl)NC1CC1 (centres unmarked) [Example 132] | 200 to 1000 |  |  |

Other lines, results leading:

| IC50 (VEGFR2) [nM] | IC50 (PDGFRB) [nM] | IC50 (FGFR1) [nM] | SMILES |
| --- | --- | --- | --- |
| 200 to 1000 | 200 to 1000 | 200 to 1000 | CCN(CC)CCOc1cc2nccc(Oc3ccc(NC(=S)NC4CC4)c(Cl)c3)c2cc1C(N)=O [Example 31] |
| < 50 | 200 to 1000 | 200 to 1000 | COc1cc2nccc(Oc3ccc(NC(=S)N4CCCC4)c(Cl)c3)c2cc1C(N)=O [Example 32] |
| 200 to 1000 | 50 to 200 | 200 to 1000 | COc1cc2nccc(Oc3ccc(NC(=O)NC(C)(C)C(F)(F)F)c(Cl)c3)c2cc1C(N)=O [Example 33] |
| 200 to 1000 | 50 to 200 | 200 to 1000 | COc1cc2nccc(Oc3ccc4c(c3)CCCN4C(=S)NCC(F)F)c2cc1C(N)=O [Example 34] |
| < 50 | 50 to 200 | 50 to 200 | COc1cc2nccc(Oc3ccc(NC(=S)N4CC(F)(F)C4)c(Cl)c3)c2cc1C(N)=O [Example 35] |
| 200 to 1000 | 200 to 1000 | 200 to 1000 | COc1cc2nccc(Oc3ccc(NC(=O)NC(C)C(F)(F)F)c(Cl)c3)c2cc1C(N)=O (centres unmarked) [Example 36] |
| < 50 | 50 to 200 | 200 to 1000 | COc1cc2nccc(Oc3ccc(NC(=S)NC4CC4)c(Cl)c3)c2cc1C(=O)NCC(F)F [Example 37] |
| 50 to 200 | 200 to 1000 | 200 to 1000 | COc1cc2nccc(Oc3ccc(NC(=S)NC4CC4)c(Cl)c3)c2cc1C(=O)NCC(F)(F)F [Example 38] |
| 50 to 200 | 50 to 200 | 200 to 1000 | CCN(CC)CCNC(=O)c1cc2c(Oc3ccc(NC(=S)NC4CC4)c(Cl)c3)ccnc2cc1OC [Example 39] |
| 50 to 200 | 50 to 200 | 200 to 1000 | CCN(CC)CCCNC(=O)c1cc2c(Oc3ccc(NC(=S)NC4CC4)c(Cl)c3)ccnc2cc1OC [Example 40] |
| 200 to 1000 |  |  | NC(=O)c1ccn2ncc(Oc3ccc(NC(=O)NC4CC4)c(Cl)c3)c2c1 [Example 125] |
| < 50 |  |  | Cc1c(OC[C@@H](C)O)cn2ncnc(Oc3ccc(NC(=O)NC4CC4)c(Cl)c3)c12 [Example 126] |
| 200 to 1000 |  |  | COc1cc2nccc(OCC3CC(NC(=O)NC4CC4)C3)c2cc1C(N)=O (centres unmarked) [Example 128] |
| 200 to 1000 |  |  | COc1cc2nccc(OC3CC(NC(=O)NC4CC4)C3)c2cc1C(N)=O (centres unmarked) [Example 129] |
| 200 to 1000 |  |  | COc1cc2nccc(Oc3ccc(CP(=O)(O)NC4CC4)c(Cl)c3)c2cc1C(N)=O [Example 133] |
| 200 to 1000 |  |  | COc1cc2nccc(Oc3ccc(N/C(=C/[N+](=O)[O-])NC4CC4)c(Cl)c3)c2cc1C(N)=O [Example 134] |
| 200 to 1000 |  |  | COc1cc2nccc(Oc3ccc(Nc4nc(=O)cc(C)[nH]4)c(Cl)c3)c2cc1C(N)=O [Example 135] |
| 200 to 1000 |  |  | COc1cc2nccc(Oc3ccc4nc(Nc5ccc(Cl)c(F)c5)sc4c3)c2cc1C(N)=O [Example 159] |
| 200 to 1000 |  |  | COc1cc2nccc(Oc3ccc(-c4c[nH]c(C(C)C)n4)c(Cl)c3)c2cc1C(N)=O [Example 179] |
| 200 to 1000 |  |  | COc1cc2nccc(Oc3ccc4oc(C(=O)N5CCCC5)cc4c3)c2cc1C(N)=O [Example 192] |
